In patent US20240261362A1, “Use Of Vetiver Product In Preparation Of Drug Having Anti-Inflammatory Effect And Capable Of Improving Animal Immunity” (Henan Agricultural University, priority 2023, published 2024):

Key:
Type in all cases: in vivo
[1] = system: xylene-induced mouse auricle swelling; test: Xylene-induced mouse auricle swelling; conditions: 0.5 mg/mouse/d intragastric, 7 d
From the text: Female SPF-grade Kunming mice weighing 18 g±1 g were purchased from Beijing HFK Bio-technology Co., Ltd., with a license number SCXK (Beijing) 2019-0008. The mice were acclimated to the environment for 3 d before the experiment, and then fed with the experimental drugs every day at 9 a.m. The mice were randomly divided into a blank control group, a dexamethasone (DXM) group, and high-, medium-, and low-dose groups of the water extract of vetiver (the water extract of vetiver prepared in Example 2) or high-, medium-, and low-dose groups of the Radix Astragali water extract (the Radix Astragali water extract prepared in Comparative Example 1), with 8 mice in each group. The mice in each group were intragastrically administered 1 time a day for 7 consecutive days. At 1 h after the final administration, 30 μL of xylene was added to the right ear of each mouse in each group, and while the left ear was kept as a control. After 30 min of the treatment, the mice were killed by neck breaking, and round ear pieces were collected by punching at a same sites of the left and right ears with a 6 mm diameter, and the ear swelling degrees and swelling inhibition rates were calculated. The results were shown in Table 6, swelling inhibition rate (%)=(average swelling degree of blank group−average swelling degree of administration group)/average swelling degree of blank group×100%.

[2] = system: carrageenan-induced mouse pedal swelling; test: Carrageenan-induced mouse pedal swelling; conditions: 0.5 mg/mouse/d, 7 d
From the text: (§1) Female SPF-grade Kunming mice weighing 18 g±1 g were purchased from the Beijing HFK Bio-technology Co., Ltd., with a license number SCXK (Beijing) 2019-0008. The mice were acclimated to the environment for 3 d before the experiment, and then fed with the experimental drugs. The mice were randomly divided into a blank control group, a DXM group, and high-, medium-, and low-dose groups of the water extract of vetiver (the water extract of vetiver prepared in Example 2) or high-, medium-, and low-dose groups of the Radix Astragali water extract (the Radix Astragali water extract prepared in Comparative Example 1), with 8 mice in each group. The mice in each group were administered continuously for 7 d. At 1 h after the final administration, 1% carrageenan was subcutaneously injected into the sole of the right hind limb to induce inflammation (at 0.1 mL/mouse). At 0 h, 1 h, 2 h, 3 h, and 4 h of Inflammatory treatment, the thickness of the paws of the mice was measured with a micrometer, and the swelling degree and swelling inhibition rate of the paws were calculated.

[3] = NO content in serum of mice (carrageenan model); conditions: 0.5 mg/mouse/d, 7 d; mice of Use Example 6
From the text: as §1
The mice in each experimental group in Use Example 6 were used as research objects. Blood was collected from eyeballs, serum was separated, stored at −20° C., and level of NO in serum was determined. […]

Q: With C[C@@H]1C[C@H]2[C@@H]3CCC4=CC(=O)C=C[C@]4(C)[C@@]3(F)[C@@H](O)C[C@]2(C)[C@@]1(O)C(=O)CO [DXM, dexamethasone] as the compound, how does the Swelling degree ([1]; 30 min after xylene) read?
A: The Swelling degree was 2.033 ± 0.907 mg.

Q: And the Swelling inhibition rate ([1]; vs blank group)?
A: Its Swelling inhibition rate is 60.646%.

Q: And the “inhibition rate of pedal swelling” value ([2]; 0 h)?
A: The value was 14.323%.

Q: What about the pedal swelling degree ([2]; 0 h after carrageenan) of the same compound?
A: Its pedal swelling degree is 0.995 ± 0.076.

Q: What about the “inhibition rate of pedal swelling” value ([2]; 1 h) of the same compound?
A: Its value is 29.302%.

Q: What about the pedal swelling degree ([2]; 1 h after carrageenan) of the same compound?
A: The pedal swelling degree was 1.090 ± 0.134.

Q: What about the “inhibition rate of pedal swelling” value ([2]; 2 h) of the same compound?
A: Its value is 34.994%.

Q: What about the pedal swelling degree ([2]; 2 h after carrageenan) of the same compound?
A: Its pedal swelling degree is 1.083 ± 0.360.

Q: What about the “inhibition rate of pedal swelling” value ([2]; 3 h) of the same compound?
A: The value was 25.884%.

Q: And the pedal swelling degree ([2]; 3 h after carrageenan)?
A: Its pedal swelling degree is 1.328 ± 0.040.

Q: And the “inhibition rate of pedal swelling” value ([2]; 4 h)?
A: The value was 13.173%.

Q: And the pedal swelling degree ([2]; 4 h after carrageenan)?
A: The pedal swelling degree was 1.438 ± 0.172.

Q: And the “NO content in serum” value [3]?
A: Its value is 7.737 ± 0.431 µmol/mL.
